Assay results reported in ChEMBL document CHEMBL1201862, “PubChem BioAssay data set” (2004).
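Assay format: 96-well plates, 48-hour exposure. GI50 marks 50% less growth.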 Active and inactive are the calls of the source. No stated cut-off is given here; in the data, active = GI50 up to about 1.1 µM and inactive = higher.

Legend:
Assay in all cases: growth of human tumour cells (NCI), 48 h
786-0 = tested on: 786-0
A498 = tested on: A498
A549 = tested on: A549
ACHN = tested on: ACHN
BT-549 = tested on: BT-549
CAKI-1 = tested on: CAKI-1
CCRF-CEM = tested on: CCRF-CEM
DU-145 = tested on: DU-145
EKVX = tested on: EKVX
HCC 2998 = tested on: HCC 2998
HCT-116 = tested on: HCT-116
HCT-15 = tested on: HCT-15
HL-60 = tested on: HL-60
HOP-62 = tested on: HOP-62
HOP-92 = tested on: HOP-92
HT-29 = tested on: HT-29
Hs-578T = tested on: Hs-578T
IGROV-1 = tested on: IGROV-1
K562 = tested on: K562
KM12 = tested on: KM12
LOX IMVI = tested on: LOX IMVI
M14 = tested on: M14
MCF7 = tested on: MCF7
MDA-MB-231 = tested on: MDA-MB-231
MDA-MB-435 = tested on: MDA-MB-435
MOLT-4 = tested on: MOLT-4
Malme-3M = tested on: Malme-3M
NCI-H226 = tested on: NCI-H226
NCI-H23 = tested on: NCI-H23
NCI-H460 = tested on: NCI-H460
NCI-H522 = tested on: NCI-H522
NCI/ADR-RES = tested on: NCI/ADR-RES
OVCAR-3 = tested on: OVCAR-3
OVCAR-5 = tested on: OVCAR-5
OVCAR-8 = tested on: OVCAR-8
PC-3 = tested on: PC-3
RPMI-8226 = tested on: RPMI-8226
RXF 393 = tested on: RXF 393
SF-268 = tested on: SF-268
SF-295 = tested on: SF-295
SF-539 = tested on: SF-539
SK-MEL-28 = tested on: SK-MEL-28
SK-MEL-5 = tested on: SK-MEL-5
SN12C = tested on: SN12C
SNB-19 = tested on: SNB-19
SNB-75 = tested on: SNB-75
SR = tested on: SR
SW-620 = tested on: SW-620
T47D = tested on: T47D
TK-10 = tested on: TK-10
U-251 = tested on: U-251
UACC-257 = tested on: UACC-257
UO-31 = tested on: UO-31

CS(=O)(=O)CCC1CCC(=O)O1 (stereo not drawn)
GI50 (786-0): > 100 µM (inactive)
GI50 (A498): > 100 µM (inactive)
GI50 (A549): 43.6 µM (inactive)
GI50 (ACHN): 31.5 µM (inactive)
GI50 (BT-549): 53 µM (inactive)
GI50 (CAKI-1): > 100 µM (inactive)
GI50 (CCRF-CEM): > 10 µM (inactive)
GI50 (DU-145): 96.8 µM (inactive)
GI50 (EKVX): > 100 µM (inactive)
GI50 (HCC 2998): > 100 µM (inactive)
GI50 (HCT-116): 48.6 µM (inactive)
GI50 (HCT-15): > 100 µM
GI50 (HL-60): > 100 µM (inactive)
GI50 (HOP-62): 40.5 µM (inactive)
GI50 (HOP-92): > 100 µM (inactive)
GI50 (HT-29): > 100 µM (inactive)
GI50 (Hs-578T): 49 µM (inactive)
GI50 (IGROV-1): > 100 µM (inactive)
GI50 (K562): > 100 µM (inactive)
GI50 (KM12): > 100 µM (inactive)
GI50 (LOX IMVI): 20.6 µM (inactive)
GI50 (M14): > 100 µM (inactive)
GI50 (MCF7): 58.9 µM (inactive)
GI50 (MDA-MB-231): > 100 µM (inactive)
GI50 (MDA-MB-435): > 100 µM (inactive)
GI50 (MOLT-4): 22 µM (inactive)
GI50 (Malme-3M): > 100 µM (inactive)
GI50 (NCI-H226): > 100 µM (inactive)
GI50 (NCI-H23): 94.2 µM (inactive)
GI50 (NCI-H460): 69.5 µM (inactive)
GI50 (NCI-H522): 31.2 µM (inactive)
GI50 (NCI/ADR-RES): > 100 µM (inactive)
GI50 (OVCAR-3): > 100 µM (inactive)
GI50 (OVCAR-5): > 100 µM (inactive)
GI50 (OVCAR-8): > 100 µM (inactive)
GI50 (PC-3): > 100 µM (inactive)
GI50 (RPMI-8226): > 100 µM (inactive)
GI50 (RXF 393): 49.2 µM (inactive)
GI50 (SF-268): 51.9 µM (inactive)
GI50 (SF-295): 92.9 µM (inactive)
GI50 (SF-539): > 100 µM (inactive)
GI50 (SK-MEL-28): > 100 µM (inactive)
GI50 (SK-MEL-5): > 100 µM (inactive)
GI50 (SN12C): 68.1 µM (inactive)
GI50 (SNB-19): > 100 µM (inactive)
GI50 (SNB-75): 97.9 µM (inactive)
GI50 (SR): 85.1 µM (inactive)
GI50 (SW-620): > 100 µM (inactive)
GI50 (T47D): > 100 µM (inactive)
GI50 (TK-10): > 100 µM (inactive)
GI50 (U-251): > 100 µM (inactive)
GI50 (UACC-257): > 100 µM (inactive)
GI50 (UO-31): > 100 µM (inactive)
